Laboratory results from patent US12697330B2, “Therapeutic methods using vadadustat” (Akebia Therapeutics, Inc., priority 2021, dated 2026).

Columns and labels:
Assay type in all cases: in vivo, human
[1] = Phase 1b study: pharmacokinetics of vadadustat and its metabolites in plasma of hemodialysis subjects with anemia associated with CKD
Procedure: The primary objective of the study was to assess the pharmacokinetics (PK) of vadadustat 600, 750, and 900 mg daily, and IV ESA (darbepoetin alfa or epoetin alfa) in hemodialysis subjects with anemia associated with CKD. Additional objectives included to evaluate the pharmacodynamics (PD) of vadadustat 600, 750, and 900 mg daily, and IV ESA (darbepoetin alfa or epoetin alfa) in hemodialysis subjects with anemia associated with CKD and to assess the safety and tolerability of vadadustat 600, 750, and 900 mg daily and IV ESA (darbepoetin alfa or epoetin alfa) in hemodialysis subjects with anemia associated with CKD.
Study Design. This was a Phase 1b, randomized, open-label study to evaluate the PK, PD, safety, and tolerability of vadadustat 600, 750, or 900 mg daily, or ESA (darbepoetin alfa or epoetin alfa) in hemodialysis subjects with anemia associated with CKD. The study included a 28-day Screening and Randomization period, a 10-day Treatment Period, and a 30-day Safety Follow up Period after the last dose of study drug (vadadustat or ESA). For subjects randomized to vadadustat, study duration also included an ESA washout period of a minimum of 5 days for epoetin alfa or 9 days for darbepoetin alfa or 9-day ESA Washout period prior to dosing on Day 1.
A total of 46 subjects were enrolled in the study. Written informed consent were obtained before any screening procedures were performed. Subjects were screened within 28 days prior to randomization. Eligible subjects were randomized in a 2:2:2:1 ratio to 1 of 4 treatment groups (600, 750, or 900 mg vadadustat QD, or ESA. Randomized subjects began their 10-day Treatment Period within 36 days of initiating screening.
Eligible subjects were randomly assigned in a 2:2:2:1 ratio to 1 of 4 treatment groups: Group 1—vadadustat 600 mg once daily (QD); Group 2—vadadustat 750 mg QD; Group 3—vadadustat 900 QD; and Group 4—IV ESA. Randomization was stratified by the mean weekly ESA dose calculated over a period of 8 weeks prior to the randomization visit. For darbepoetin, the groups were divided into low dose darbepoetin alfa group (<0.5 μg/kg/week) and high dose darbepoetin alfa group (>0.5 to <1.5 μg/kg/week). For epoetin, the groups were divided into low dose epoetin alfa group (≤90 U/kg/week) and high dose epoetin alfa group (>90 to <300 U/kg/week).
Subjects began dosing on Day 1 and took vadadustat at approximately the same time each day for a total of 10 days. On Day 1 and Day 8, subjects took vadadustat after all predose procedures are completed and within 30 minutes prior to the start of dialysis so that the 1-hour post dose blood sample for PK and PD was collected during dialysis. Vadadustat could be taken with or without food. Subjects were instructed to make every effort to take the drug consistently, either with or without food. Subjects were instructed to swallow the tablets whole with water.
PK and EPO Sample. For each vadadustat treatment group, blood samples for vadadustat PK (and its metabolites) and EPO were collected at the following time points: Day 1: predose, and at 1, 2, 3, 4, 5, 8, and 11 hours post dose; Day 2: 24 hours (−2 hours) post Day 1 dose; Day 6: blood sample for EPO analysis only was collected predose on Day 6; Day 8: predose, and at 1, 2, 3, 4, 5, 8, 11 hours post dose, Day 10 or EOT: predose. For the ESA treatment group, blood samples for analysis of EPO were collected at the following time points: Day 1: predose, and at 0.25, 1, 2, 3, 4, 5, 8, and 11 hours post dose; Day 2: 24 hours (−2 hours) post Day 1 dose.
Primary Endpoints. […]

[2] = Phase 2 study, Main Study: pharmacokinetics (vadadustat and vadadustat-O-glucuronide concentration); conditions: Week 1, Week 1+1 day, and Week 11
Procedure: PK/PD Endpoints. An exposure-response analysis of vadadustat and PD measures were conducted as deemed appropriate. The PK parameters included (but were not limited to) the following: area under concentration-time curve from dosing to last measurable concentration (AUClast), area under concentration-time curve from dosing to infinity (AUCinf), Cmax, apparent total body clearance (CL/F), apparent volume of distribution (Vd/F), and terminal half-life (t1/2). The PD parameters included (but were not limited to) the following: EPO, reticulocytes, iron, ferritin, TIBC, and hepcidin.
PK population: included all randomized subjects who received study drug (vadadustat or epoetin alfa) and had enough drug concentrations to estimate AUC and Cmax. Analysis of this population was based on the dose amount taken at the date of PK sampling for the vadadustat group.

healthy adults = assay: Drug interaction study with co-administration of vadadustat in healthy adults; conditions: healthy adults; extent of increase
Excerpt: Sulfasalazine. Other Breast Cancer Resistance Protein Substrates. and Probenecid. Exposures to sulfasalazine (moderately) and mesalamine (mildly) were increased with co-administration of vadadustat based on a study in healthy adults. In subjects taking vadadustat, sulfasalazine and other clinically relevant substrates of the breast cancer resistance protein (BCRP) transporter (e.g., sulfasalazine, methotrexate, mitoxantrone, imatinib, irinotecan, lapatinib, topotecan, tenofovir, glecaprevir, pibrentasvir, or sofosbuvir), caution should be taken during the study. Probenecid, an inhibitor of UDP-glucuronosyltransferase (UGT) and the organic anion transporter (OAT)1/3 transporters, increased vadadustat area under the curve and is prohibited during the study.

Row | metabolite exposure versus dose ([1]; Day 8) | accumulation versus dose ([1]; most pronounced in the 900 mg vadadustat treatment group) | Exposures increased with co-administration of vadadustat (healthy adults) | SMILES | mean concentration versus time profiles, dose dependency [2]
1 | increased in a dose-dependent manner | dose-dependent increase in accumulation | – | O=C(O)CNC(=O)c1ncc(-c2cccc(Cl)c2)cc1O[C@@H]1O[C@H](C(=O)O)[C@@H](O)[C@H](O)[C@H]1O [vadadustat-O-glucuronide] | concentrations increased with dose levels
2 | – | – | moderately | O=C(O)c1cc(/N=N/c2ccc(S(=O)(=O)Nc3ccccn3)cc2)ccc1O [sulfasalazine] | –
3 | – | – | mildly | Nc1ccc(O)c(C(=O)O)c1 [mesalamine] | –
